Ends that are not written are not given here.
Test system: KV3.4 currents
Experiment: Whole-cell patch clamp of KV3.4 currents in NGF-differentiated PC-12 cells, control or exposed to Aβ1−42
Assay type: cell-based, Rat
Conditions: peak of +40 mV pulse, 6 to 10 cells, 3 sessions; for effect on KV3.4 activity in NGF-differentiated PC-12 cells: 100 nM, control condition (no Aβ1−42); for effect on KV3.4 upregulation elicited by Aβ1−42 exposure: peptide 100 nM, 30 min pre-treatment, Aβ1−42 oligomers 5 μM for 24 h
Experimental: Rat pheochromocytoma cells (PC-12 cells) were grown as previously described (Pannaccione et al., [2005], [2007]). For all the experiments, cells were seeded at low density on glass cover-slips coated with poly-L-lysine (50 μg/ml). Differentiation of PC-12 cells was achieved by treatment with neuronal growth factor (NGF) 2.5 S (50 ng/ml) for 7–9 days (Greene and Tischler, [1976]). For electrophysiological experiments, cells were seeded on glass cover-slips and used after 7–9 days of NGF.
Currents from CHO cells were recorded at room temperature 1-2 days after transfection. The extracellular solution contained the following (in mM): 138 NaCl, 5.4 KCl, 2 CaCl2, 1 MgCl2, 10 glucose and 10 HEPES, adjusted pH 7.4 with NaOH. The pipette solution contained (in mM) the following: 140 KCl, 2 MgCl2, 10 EGTA, 10 HEPES, 5 Mg-ATP, adjusted pH 7.4 with KOH (Miceli et al., [2015]). KV3.4 currents were measured by applying voltage steps from −100 mV to +60 mV from a holding potential of −80 mV (Abbott et al., [2001]). Moreover, the total outward K^+ currents were recorded in NGF-differentiated PC-12 cells using the extracellular solution contained the following (in mM): 150 NaCl, 5.4 KCl, 3 CaCl2, 1 MgCl2, 10 HEPES, adjusted pH 7.4 with NaOH. The pipette solution contained the following (in mM): 140 KCl, 2 MgCl2, 10 HEPES, 10 glucose, 10 EGTA, and 1 Mg-ATP adjusted at pH 7.4 with KOH (Diochot et al., [1998]). All experiments were performed in the presence of 50 nM tetrodotoxin (TTX) and 10 μ M nimodipine in the extracellular solution. To discriminate K^+ current components appropriate electrophysiological protocols were used (Pannaccione et al., [2007]). Steady-state activation and inactivation properties were measured by using appropriate protocols (Pannaccione et al., [2005]). […] The capacitance of the membrane was calculated according to the following equation: Cm = τc·Io/ΔEm (1-I∞/Io), where Cm is membrane capacitance, τc is the time constant of the membrane capacitance, Io is the maximum capacitance current value, ΔEm is the amplitude of the voltage step, and I∞ is the amplitude of the steady-state current. K^+ currents were recorded by patch-clamp technique in CHO and NGF-differentiated PC-12 cells using a commercially available amplifier (Axopatch 200B, Molecular Devices) and Digidata 1322A interface (Molecular Devices, USA). […] Data were acquired and analyzed using the pClamp software (version 9, Molecular Devices). […]
The peptide used in our study was synthesized by INBIOS (Pozzuoli, Naples, Italy) using the Aβ1−42 sequence of human APP [UniProtKB-P05067 (A4_HUMAN)]. The purity of the peptide was assessed by high-performance liquid chromatography (>95% pure) and the amino acid composition was verified by mass spectrometry. […]

Row | Substance | effect on KV3.4 activity in NGF-differentiated PC-12 cells | effect on KV3.4 upregulation elicited by Aβ1−42 exposure
1 | H-GSAFAPAA-OH [BDS-I[1-8scr]] | did not exert any effect | did not counteract
2 | AAPAFASG [BDS-I[1-8]] | blocked KV3.4 activity | prevented
